Reference: patent EP0505468B1, “IMIDAZOLE DERIVATIVES AND THEIR USE AS ACYL COENZYME-A INHIBITORS” (RHONE-POULENC SANTE, priority 1989, dated 1991)

Key:
[1] = tested on: acyl coenzyme-A:cholesterol-O-acyl transferase (ACAT;EC 2.3.1.26); experiment: In vitro ACAT inhibition in rat liver microsomes incubated with radiolabelled oleoyl-CoA; format: biochemical
Protocol: In assays performed in vitro, microsomes (prepared from the livers of rats fed a diet supplemented with 0.5%w/w cholesterol and 0.25%w/w cholic acid for 7 days) were incubated with radiolabelled oleoyl-CoA in the presence of compounds according to the invention at a concentration (in »g/m1) as shown in Table 1.

plasma cholesterol level = experiment: In vivo inhibition of the increase in plasma cholesterol level in cholesterol/cholic acid-fed rats; settings: increase in plasma cholesterol level measured after 3 days, relative to control animals on cholesterol supplemented diet; for inhibition in vivo at 0.01 % strength / inhibition in vivo at 0.03 % strength: Rattus norvegicus, feed or water, 72 h, read-out: In-vivo % Reduction; for inhibition in vivo at 0.01 % strength: dose 0.01 %w/w in diet; for inhibition in vivo at 0.03 % strength / In-vivo % Reduction: dose 0.03 %w/w in diet
[2] = concentration 0.5 »g/m1, microsomes from livers of rats fed 0.5%w/w cholesterol and 0.25%w/w cholic acid for 7 days
[3] = concentration 1.0 »g/m1, microsomes from livers of rats fed 0.5%w/w cholesterol and 0.25%w/w cholic acid for 7 days

| SMILES | In-vitro % Inhibition [1, 2] [%] | other results |
| --- | --- | --- |
| c1ccc(-c2nc(SCCCSc3ncc[nH]3)[nH]c2-c2ccccc2)cc1 [M, 2-[3-(Imidazol-2-ylthio)propylthio]-4,5-diphenylimidazole] | 95 | inhibition in vivo at 0.01 % strength (plasma cholesterol level): 107% |
| Cn1nnnc1SCCCSc1nc(-c2ccccc2)c(-c2ccccc2)[nH]1 [J, 2-[3-(1-Methyltetrazol-5-ylthio)propylthio]-4,5-diphenylimidazole] | 84 | inhibition in vivo at 0.01 % strength (plasma cholesterol level): 17% |
| c1ccc(-c2nc(SCCCSc3ncccn3)[nH]c2-c2ccccc2)cc1 [A, 2-[3-(Pyrimidin-2-ylthio)propylthio]-4,5-diphenylimidazole] | 88 | inhibition in vivo at 0.03 % strength (plasma cholesterol level): 7% |
| Cl.Cl.Cn1ccnc1SCCCSc1nc(-c2ccccc2)c(-c2ccccc2)[nH]1 [Compound D, 2-[3-(1-Methylimidazol-2-ylthio)propylthio]-4,5-diphenylimidazole dihydrochloride] |  | In-vivo % Reduction (plasma cholesterol level): 88% |
| Cn1nnnc1S(=O)(=O)CCCSc1nc(-c2ccccc2)c(-c2ccccc2)[nH]1 [Compound L, 2-[3-(1-Methyltetrazol-5-ylsulphonyl)propylthio]-4,5-diphenylimidazole] | 19 |  |
| Cn1ccnc1S(=O)(=O)CCCSc1nc(-c2ccccc2)c(-c2ccccc2)[nH]1 [Compound H, 2-[3-(1-Methylimidazol-2-ylsulphonyl)propylthio]-4,5-diphenylimidazole] | 90 | inhibition in vivo at 0.03 % strength (plasma cholesterol level): 108% |
| c1ccc(-c2nc(SCCCSc3ccncc3)[nH]c2-c2ccccc2)cc1 [Compound B, 2-[3-(Pyrid-4-ylthio)propylthio]-4,5-diphenylimidazole] | 90 | inhibition in vivo at 0.03 % strength (plasma cholesterol level): 91% |
| Cn1ccnc1SCCCCCCCCCSc1nc(-c2ccccc2)c(-c2ccccc2)[nH]1 [Compound T, 2-[9-(1-Methylimidazol-2-ylthio)nonylthio]-4,5-diphenylimidazole] | 91 |  |
| Cn1cnnc1SCCCSc1nc(-c2ccccc2)c(-c2ccccc2)[nH]1 [Compound I, 2-[3-(4-Methyl-1,2,4-triazol-3-ylthio)propylthio]-4,5-diphenylimidazole] | 84 | inhibition in vivo at 0.01 % strength (plasma cholesterol level): 5% |
| Cn1ccnc1SCCCSc1nc(-c2ccccc2)c(-c2ccccc2)[nH]1 [C, 2-[3-(1-Methylimidazol-2-ylthio)propylthio]-4,5-diphenylimidazole] | 93 | In-vivo % Reduction (plasma cholesterol level): 66% |
| Cc1cc(C)nc(SCCCSc2nc(-c3ccccc3)c(-c3ccccc3)[nH]2)n1 [Compound G, 2-[3-(4,6-Dimethylpyrimidin-2-ylthio)propylthio]-4,5-diphenylimidazole] | 80 |  |
| Cl.Cl.c1ccc(-c2nc(SCCCSc3nc(-c4ccccn4)c(-c4ccccn4)[nH]3)[nH]c2-c2ccccc2)cc1 [Compound K, 1-(4,5-Diphenylimidazol-2-ylthio)-3-[(4,5-dipyrid-2-yl)imidazol-2-ylthio]propane dihydrochloride] | 77 | inhibition in vivo at 0.01 % strength (plasma cholesterol level): 4% |
| Cn1ccnc1SCCCCCCSc1nc(-c2ccccc2)c(-c2ccccc2)[nH]1 [Compound R, 2-[6-(1-Methylimidazol-2-ylthio)hexylthio]-4,5-diphenylimidazole] | 95 |  |
| c1ccc(-c2nc(SCCCCCCCCCSc3nc(-c4ccccc4)c(-c4ccccc4)[nH]3)[nH]c2-c2ccccc2)cc1 [Compound S, 1,9-Bis(4,5-diphenylimidazol-2-ylthio)nonane] | 77 |  |
| Cn1ccnc1SCCCCSc1nc(-c2ccccc2)c(-c2ccccc2)[nH]1 [N, 2-[4-(1-Methylimidazol-2-ylthio)butylthio]-4,5-diphenylimidazole] | 94 | inhibition in vivo at 0.03 % strength (plasma cholesterol level): 98% |
| c1ccc(-c2nc(SCCCCSc3nc(-c4ccccc4)c(-c4ccccc4)[nH]3)[nH]c2-c2ccccc2)cc1 [P, 1,4-Bis(4,5-diphenylimidazol-2-ylthio)butane] | 97 |  |
| Cn1ccnc1S(=O)(=O)CCCCS(=O)(=O)c1nc(-c2ccccc2)c(-c2ccccc2)[nH]1 [Compound O, 2-[4-(1-Methylimidazol-2-ylsulphonyl)butylsulphonyl]-4,5-diphenylimidazole] | 23 |  |
| C(=C\CSc1nc(-c2ccccc2)c(-c2ccccc2)[nH]1)/CSc1nc(-c2ccccc2)c(-c2ccccc2)[nH]1 [Q, E-1,4-Bis(4,5-diphenylimidazol-2-ylthio)but-2-ene] | 98 | inhibition in vivo at 0.01 % strength (plasma cholesterol level): 74% |
| c1ccc(-c2nc(SCCSc3nc(-c4ccccc4)c(-c4ccccc4)[nH]3)[nH]c2-c2ccccc2)cc1 [E, 1,2-Bis(4,5-diphenylimidazol-2-ylthio)ethane] |  | In-vitro % Inhibition [1, 3]: 88% |
| c1ccc(-c2nc(SCCCSc3nc(-c4ccccc4)c(-c4ccccc4)[nH]3)[nH]c2-c2ccccc2)cc1 [F, 1,3-Bis(4,5-diphenylimidazol-2-ylthio)propane] |  | In-vitro % Inhibition [1, 3]: 96%; inhibition in vivo at 0.03 % strength (plasma cholesterol level): 72% |
